Test systems include OVCAR-5 ovarian; MCF7 breast; HCT-15 colon; SNB-19 CNS; NCI/ADR-RES ovarian; SN12C renal; 786-0 renal; BT-549 breast.
What all share (assay): DTP human tumour cell line panel, 48 h

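48-hour exposure; five concentrations; linearly interpolated endpoints. GI50 = concentration required for 50% inhibition of growth. TGI denotes the concentration required for complete inhibition of growth.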 Some results are limits rather than exact numbers.

For `CCOC(=O)Oc1c(OC)cc(C(=O)c2ccc(OC)c(O)c2OC)cc1OC`, the GI50 was 5.96 µM in the assay with OVCAR-5 ovarian; 0.516 µM in the assay with MCF7 breast; 0.42 µM in the assay with HCT-15 colon; 0.821 µM with SNB-19 CNS; 0.378 µM in the assay with NCI/ADR-RES ovarian; 2.79 µM in the assay with SN12C renal. In addition, the GI50 in the assay with 786-0 renal is 0.475 µM; in the assay with BT-549 breast, 0.465 µM. Besides, the TGI in the assay on OVCAR-5 ovarian was above 100 µM; in the assay with MCF7 breast, above 100 µM; with HCT-15 colon, above 100 µM; in the assay on SNB-19 CNS, above 100 µM; in the assay with NCI/ADR-RES ovarian, 6.97 µM; in the assay on SN12C renal, above 100 µM. In addition, the results for the TGI in the assay with 786-0 renal and with BT-549 breast were above 100 µM and 6.97 µM, respectively.
In the case of `CC(C)=CCN1c2ccccc2NC(=O)CC1C` (stereo not drawn), the total growth inhibition concentration (TGI) with OVCAR-5 ovarian was above 100 µM; in the assay with MCF7 breast it was above 100 µM; in the assay with HCT-15 colon, above 100 µM; with SNB-19 CNS, above 100 µM; in the assay on NCI/ADR-RES ovarian it was above 100 µM; in the assay on SN12C renal, 81.2 µM. Also, the total growth inhibition concentration (TGI) was above 100 µM in the assay with 786-0 renal and 55 µM with BT-549 breast.
Consider `O=C(O)c1nc(NCc2nc3cc(Cl)ccc3o2)n[nH]1`, for which the GI50 in the assay with OVCAR-5 ovarian, in the assay on MCF7 breast, with HCT-15 colon, in the assay with SNB-19 CNS, in the assay on NCI/ADR-RES ovarian and with SN12C renal was above 100 µM each time. Also, the GI50 in the assay with 786-0 renal and in the assay with BT-549 breast was above 100 µM each time. The concentration for total growth inhibition (TGI) in the assay on OVCAR-5 ovarian, in the assay on MCF7 breast, in the assay on HCT-15 colon, in the assay on SNB-19 CNS, with NCI/ADR-RES ovarian and in the assay on SN12C renal was above 100 µM throughout. The TGI with 786-0 renal and with BT-549 breast was above 100 µM each time.
As for `CCOc1ccccc1CCN=C1NC(=O)/C(=C/c2ccc3ncccc3c2)S1`, the GI50 is 3.09 µM in the assay with OVCAR-5 ovarian; 0.792 µM in the assay with MCF7 breast; 0.777 µM in the assay on HCT-15 colon; 1.46 µM in the assay with SNB-19 CNS; 1.28 µM in the assay with NCI/ADR-RES ovarian; 1.61 µM in the assay with SN12C renal. Moreover, the GI50 in the assay with 786-0 renal is 1.93 µM; in the assay on BT-549 breast it was 1.74 µM. Besides, the TGI with OVCAR-5 ovarian was 15.8 µM; in the assay with MCF7 breast it was above 25 µM; in the assay on HCT-15 colon it was above 25 µM; in the assay on SNB-19 CNS it was above 25 µM; with NCI/ADR-RES ovarian it was above 22.7 µM; in the assay with SN12C renal it was above 25 µM. Moreover, the TGI was above 14.3 µM in the assay with 786-0 renal and above 12.7 µM in the assay on BT-549 breast.
Regarding `O=[N+]([O-])c1ccccc1N=Nc1c(O)[nH]c2cccc(C(F)(F)F)c12`, the TGI in the assay on OVCAR-5 ovarian was above 100 µM; in the assay with MCF7 breast, above 100 µM; in the assay on HCT-15 colon it was above 100 µM; in the assay on SNB-19 CNS, above 100 µM; in the assay on NCI/ADR-RES ovarian it was above 100 µM; in the assay with SN12C renal, 73.8 µM. Moreover, the TGI is 60 µM in the assay with 786-0 renal and above 100 µM in the assay on BT-549 breast.
With `CC(=O)Nc1ccc(-c2cc(C(=O)O)c3cc4ccccc4cc3n2)cc1`, the TGI in the assay with OVCAR-5 ovarian, in the assay with MCF7 breast, with HCT-15 colon, in the assay on SNB-19 CNS, in the assay on NCI/ADR-RES ovarian and in the assay on SN12C renal was above 100 µM throughout. Further, the TGI with 786-0 renal and in the assay on BT-549 breast was above 100 µM in each case.
Take `Oc1cc(Cc2ccccc2)c(Cc2ccccc2)cc1O`: the TGI with OVCAR-5 ovarian, in the assay with MCF7 breast, with HCT-15 colon, in the assay with SNB-19 CNS, in the assay on NCI/ADR-RES ovarian and in the assay with SN12C renal was above 10 µM each time. Besides, the TGI with 786-0 renal and in the assay with BT-549 breast was above 10 µM throughout.
For `CCCN1C(=O)NC(=O)C(CC)(N2C(=O)c3c(F)c(F)c(F)c(F)c3C2=O)C1=O` (stereo not drawn), the GI50 was 2.04 µM with OVCAR-5 ovarian; 0.987 µM with MCF7 breast; 1.85 µM in the assay on HCT-15 colon; 2.44 µM with SNB-19 CNS; 2.91 µM in the assay with NCI/ADR-RES ovarian; 2.16 µM in the assay with SN12C renal. Besides, the GI50 with 786-0 renal is 2.66 µM; with BT-549 breast, 2.19 µM. Further, the TGI was 4.11 µM with OVCAR-5 ovarian; 4.06 µM in the assay with MCF7 breast; 6.82 µM in the assay with HCT-15 colon; 6.53 µM with SNB-19 CNS; 10.5 µM with NCI/ADR-RES ovarian; 6.14 µM in the assay on SN12C renal. Besides, the concentration for total growth inhibition (TGI) in the assay on 786-0 renal was 7.75 µM; in the assay on BT-549 breast, 5.29 µM.
Take `COc1ccc(-c2noc(C(=O)O)c2-c2cc(OC)c(OC)c(OC)c2)cc1`: the GI50 was 5.82 µM in the assay on OVCAR-5 ovarian; 1.34 µM in the assay on MCF7 breast; 0.881 µM in the assay with HCT-15 colon; 6.75 µM in the assay on SNB-19 CNS; 1.47 µM with NCI/ADR-RES ovarian; 37.2 µM with SN12C renal. The GI50 in the assay with 786-0 renal was 4.85 µM; with BT-549 breast it was 17.9 µM. Besides, the concentration for total growth inhibition (TGI) in the assay with OVCAR-5 ovarian, in the assay on MCF7 breast, in the assay on HCT-15 colon, with SNB-19 CNS, in the assay with NCI/ADR-RES ovarian and with SN12C renal was above 100 µM throughout. Besides, the TGI in the assay on 786-0 renal and in the assay on BT-549 breast was above 100 µM in each case.
On to `CC(=O)c1c(O)c(C)c(O)c(Cc2c(O)c3c(c(C(=O)/C=C/c4ccccc4)c2O)OC(C)(C)C=C3)c1O`, for which the TGI in the assay with OVCAR-5 ovarian amounted to 22.4 µM; in the assay with MCF7 breast, 19.9 µM; with HCT-15 colon it was 14.3 µM; in the assay with SNB-19 CNS it was 19.4 µM; with NCI/ADR-RES ovarian, 15.8 µM; in the assay on SN12C renal it was 9.09 µM. Besides, the values for the TGI in the assay on 786-0 renal and in the assay with BT-549 breast were 18.7 µM and 8.77 µM, respectively.
Regarding `O=S(=O)(Nc1ccc(Br)cc1)c1ccc(-c2cnc(C3CC3)o2)cc1`, the GI50 was 4.55 µM in the assay with OVCAR-5 ovarian; 0.651 µM with MCF7 breast; 0.644 µM with HCT-15 colon; 3.98 µM with SNB-19 CNS; 1 µM with NCI/ADR-RES ovarian; 4.41 µM in the assay with SN12C renal. Also, the GI50 in the assay on 786-0 renal was 5.34 µM; with BT-549 breast, 3.37 µM. Moreover, the concentration for total growth inhibition (TGI) was determined as 17.1 µM in the assay on OVCAR-5 ovarian; 13.9 µM in the assay with MCF7 breast; 14.2 µM in the assay with HCT-15 colon; 18.3 µM in the assay on SNB-19 CNS; 10.4 µM in the assay on NCI/ADR-RES ovarian; 18.2 µM with SN12C renal. Moreover, the TGI was determined as 20.1 µM in the assay on 786-0 renal and 19.4 µM in the assay with BT-549 breast.
Turning to `FC(F)(F)c1cccc(-c2nc3nc(Cl)c(Cl)nc3[nH]2)c1`, the concentration for total growth inhibition (TGI) was 16 µM in the assay with OVCAR-5 ovarian; 8.95 µM in the assay with MCF7 breast; above 38.6 µM in the assay with HCT-15 colon; above 59.2 µM in the assay on SNB-19 CNS; above 100 µM in the assay on NCI/ADR-RES ovarian; above 35.9 µM in the assay on SN12C renal. Also, the TGI in the assay with 786-0 renal was above 65.7 µM; with BT-549 breast it was 51.8 µM.
Take `Cc1ccc2cnc(N)c(C#Cc3cc(C(=O)Nc4ccc(CN5CCN(C)CC5)c(C(F)(F)F)c4)cnc3C)c2c1`: the GI50 is 0.688 µM with OVCAR-5 ovarian; 0.498 µM with MCF7 breast; 0.385 µM in the assay on HCT-15 colon; 0.891 µM in the assay on SNB-19 CNS; 1.05 µM with NCI/ADR-RES ovarian; 0.317 µM in the assay with SN12C renal. For the same compound, the GI50 is 0.809 µM with 786-0 renal and 1.94 µM with BT-549 breast. The TGI turned out to be 1.49 µM in the assay with OVCAR-5 ovarian; 1.49 µM in the assay on MCF7 breast; 1.17 µM in the assay with HCT-15 colon; 1.89 µM in the assay with SNB-19 CNS; 2.9 µM in the assay with NCI/ADR-RES ovarian; 1.06 µM in the assay with SN12C renal. Further, the total growth inhibition concentration (TGI) in the assay on 786-0 renal was 1.68 µM; with BT-549 breast it was 6.23 µM.
For the compound `C=C1CCC2C3(C)COC(C)(C)OC3CCC2(C)C1C/C=C1/C(=O)OCC1OC(C)=O` (stereo not drawn), the GI50 in the assay with OVCAR-5 ovarian is 3.78 µM; in the assay on MCF7 breast it was 1.76 µM; in the assay with HCT-15 colon it was 1.61 µM; with SNB-19 CNS, 15.6 µM; in the assay with NCI/ADR-RES ovarian, 3.06 µM; in the assay with SN12C renal, 5.95 µM. In addition, the GI50 in the assay on 786-0 renal was 2.89 µM; with BT-549 breast, 2.33 µM. The TGI came to 11.2 µM in the assay on OVCAR-5 ovarian; 7.99 µM with MCF7 breast; 4.19 µM in the assay on HCT-15 colon; 29 µM in the assay with SNB-19 CNS; 11.1 µM in the assay with NCI/ADR-RES ovarian; 22.6 µM in the assay on SN12C renal. In addition, the TGI in the assay with 786-0 renal is 8.05 µM; with BT-549 breast it was 6.79 µM.
With `Cc1c2cnccc2c(C)c2c1c1cc(C#N)ccc1n2C`, the GI50 with OVCAR-5 ovarian is 0.262 µM; in the assay on MCF7 breast, 0.262 µM; with HCT-15 colon it was 0.0966 µM; with SNB-19 CNS, 0.181 µM; in the assay on NCI/ADR-RES ovarian, 0.117 µM; in the assay on SN12C renal, 0.149 µM. In addition, the GI50 is 0.235 µM in the assay on 786-0 renal and 0.406 µM with BT-549 breast. Besides, the total growth inhibition concentration (TGI) in the assay with OVCAR-5 ovarian is 1.47 µM; in the assay with MCF7 breast, 1.12 µM; with HCT-15 colon, 0.85 µM; in the assay with SNB-19 CNS it was 1.94 µM; in the assay on NCI/ADR-RES ovarian, 0.736 µM; in the assay with SN12C renal it was 1.14 µM. The total growth inhibition concentration (TGI) turned out to be 1.3 µM in the assay on 786-0 renal and 1.97 µM in the assay with BT-549 breast.
`N#C[Se]Cc1cc(-c2ccccc2)n(-c2ccc(S(N)(=O)=O)cc2)n1`: the GI50 in the assay with OVCAR-5 ovarian is 1.86 µM; in the assay on MCF7 breast it was 0.42 µM; in the assay on HCT-15 colon, 2.05 µM; in the assay on SNB-19 CNS it was 0.587 µM; with NCI/ADR-RES ovarian, 5.51 µM; in the assay on SN12C renal it was 0.527 µM. Further, the GI50 was 2.63 µM in the assay on 786-0 renal and 1.68 µM with BT-549 breast. The TGI was 3.97 µM with OVCAR-5 ovarian; 9.78 µM with MCF7 breast; 5.55 µM in the assay on HCT-15 colon; 1.88 µM with SNB-19 CNS; 40 µM in the assay with NCI/ADR-RES ovarian; 4.1 µM with SN12C renal. Besides, the figures for the TGI in the assay on 786-0 renal and with BT-549 breast were 6.49 µM and 4.55 µM, respectively.

The GI50 is the concentration at which growth is held to half of that of the control. One may read the TGI as the concentration at which net growth stops. Lower therefore signals more potent growth arrest.

The values above are taken from PubChem BioAssay (NCI).
